In patent US20040110802A1, “Antibacterial benzoic acid derivatives” (priority 2002, published 2004):
≈ marks a conversion by molar mass, not a printed value.

Test system: SAUR 9218
Assay: MIC Test Method, standard agar dilution
Format: cell-based
Conditions: agar dilution, Mueller Hinton agar, incubated overnight at 35° C.; lowest concentration that inhibits visible growth; read-out: SAUR 9218 MIC
How it was run: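 Agar dilution in Mueller Hinton agar with serial 2-fold compound dilutions. Staphylococcus aureus strain 9218 spotted at approximately 10^4 to 10^5 cells per spot, incubated overnight at 35 °C; MIC (μg/ml) is the lowest concentration preventing visible growth.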

Row | Structure (SMILES) | MIC
1 | O=C(O)c1cc(Br)ccc1NC(=O)c1ncc(C(F)(F)F)cc1Cl | 64 µg/mL (≈ 151 µM)
2 | Nc1ccc(CCNS(=O)(=O)c2cc(C(=O)Nc3ccc(Br)cc3C(=O)O)cs2)cc1 | 128 µg/mL (≈ 244 µM)
3 | O=C(Nc1ccc(Br)cc1C(=O)O)c1csc(S(=O)(=O)NC2Cc3ccccc3C2)c1 | 8 µg/mL (≈ 15.3 µM)
4 | O=C(Nc1ccc(Br)cc1C(=O)O)c1csc(S(=O)(=O)N2CCN(c3ccc(Cl)cc3)CC2)c1 | 32 µg/mL (≈ 54.7 µM)
5 | CN(C)c1ccc(CNS(=O)(=O)c2cc(C(=O)Nc3ccc(Br)cc3C(=O)O)cs2)cc1 | 64 µg/mL (≈ 119 µM)
6 | Cc1sc(C(=O)Nc2ccc(C#N)cc2C(=O)O)cc1S(=O)(=O)N1CCCC2CCCCC21 (stereo not shown) | 32 µg/mL (≈ 65.6 µM)
7 | COc1ccc2[nH]c(C(=O)Nc3ccc(C#N)cc3C(=O)O)cc2c1 | 128 µg/mL (≈ 382 µM)
8 | N#Cc1ccc(NC(=O)c2cc3cc(OCc4ccccc4)ccc3[nH]2)c(C(=O)O)c1 | 16 µg/mL (≈ 38.9 µM)
9 | Cc1noc(C)c1-c1cncc(C(=O)Nc2ccc(C#N)cc2C(=O)O)c1 | 16 µg/mL (≈ 44.2 µM)
10 | N#Cc1ccc(NC(=O)c2cncc(-c3ccc(C(F)(F)F)cc3)c2)c(C(=O)O)c1 | > 128 µg/mL
11 | N#Cc1ccc(NC(=O)c2cncc(-c3ccccc3)c2)c(C(=O)O)c1 | 16 µg/mL (≈ 46.6 µM)
12 | N#Cc1ccc(NC(=O)c2coc(-c3ccccc3)n2)c(C(=O)O)c1 | 64 µg/mL (≈ 192 µM)
13 | CCCCN1C(=O)c2ccc(C(=O)Nc3ccc(C#N)cc3C(=O)O)cc2C1=O | 4 µg/mL (≈ 10.2 µM)
14 | CC(C)(C)N1C(=O)c2ccc(C(=O)Nc3ccc(Br)cc3C(=O)O)cc2C1=O | 4 µg/mL (≈ 8.98 µM)
15 | Cc1oc(C(=O)Nc2ccc(C#N)cc2C(=O)O)cc1S(=O)(=O)N1CCCC1CO (stereo not shown) | 8 µg/mL (≈ 18.5 µM)
16 | CCCCN(CCO)S(=O)(=O)c1cc(C(=O)Nc2ccc(C#N)cc2C(=O)O)sc1C | 32 µg/mL (≈ 68.7 µM)
17 | N#Cc1ccc(NC(=O)c2cncc(-c3cccc4cccnc34)c2)c(C(=O)O)c1 | 32 µg/mL (≈ 81.1 µM)
18 | N#Cc1ccc(NC(=O)c2cncc(C#CC3C=NNC3)c2)c(C(=O)O)c1 (stereo not shown) | 4 µg/mL (≈ 11.1 µM)
19 | COc1ncc(C#Cc2cncc(C(=O)Nc3ccc(C#N)cc3C(=O)O)c2)c(OC)n1 | > 128 µg/mL
20 | COc1cc2c(cc1OC)CN(S(=O)(=O)c1cc(C(=O)Nc3ccc(C#N)cc3C(=O)O)sc1C)CC2 | 8 µg/mL (≈ 14.8 µM)

Row | Structure (SMILES) | MIC
21 | Cc1sc(C(=O)Nc2ccc(C#N)cc2C(=O)O)cc1S(=O)(=O)N1CCc2ccccc2C1 | 4 µg/mL (≈ 8.31 µM)
22 | N#Cc1ccc(NC(=O)c2ccc(S(=O)(=O)Cc3ccccc3)nc2)c(C(=O)O)c1 | 64 µg/mL (≈ 152 µM)
23 | N#Cc1ccc(NC(=O)c2cncc(C#Cc3ccccc3)c2)c(C(=O)O)c1 | 4 µg/mL (≈ 10.9 µM)
24 | N#Cc1ccc(NC(=O)c2cc(-c3ccccc3)on2)c(C(=O)O)c1 | 0.25 µg/mL (≈ 0.75 µM)
25 | N#Cc1ccc(NC(=O)c2ccc(SC3CCOCC3)nc2)c(C(=O)O)c1 | 0.125 µg/mL (≈ 0.326 µM)
26 | N#Cc1ccc(NC(=O)c2csc(SCc3ccccc3)n2)c(C(=O)O)c1 | 4 µg/mL (≈ 10.1 µM)
27 | N#Cc1ccc(NC(=O)c2ccc(SCCCOc3ccc(Br)cc3)nc2)c(C(=O)O)c1 | 0.125 µg/mL (≈ 0.244 µM)
28 | N#Cc1ccc(NC(=O)c2ccc(SCC3CC3)nc2)c(C(=O)O)c1 | 0.5 µg/mL (≈ 1.41 µM)
29 | CC(C)Sc1ccc(C(=O)Nc2ccc(Br)cc2C(=O)O)cn1 | 1 µg/mL (≈ 2.53 µM)
30 | N#Cc1ccc(NC(=O)c2cnc(SCc3ccccc3)cn2)c(C(=O)O)c1 | 0.125 µg/mL (≈ 0.32 µM)
31 | COc1cccc2cc(C(=O)Nc3ccc(C#N)cc3C(=O)O)oc12 | 4 µg/mL (≈ 11.9 µM)
32 | Cn1c(C(=O)Nc2ccc(C#N)cc2C(=O)O)cc2ccccc21 | 0.25 µg/mL (≈ 0.783 µM)
33 | N#Cc1ccc(NC(=O)c2ccc(SC3CCCCC3)nc2)c(C(=O)O)c1 | 0.5 µg/mL (≈ 1.31 µM)
34 | O=C(Nc1ccc(Br)cc1C(=O)O)c1cc(SCc2ccccc2)on1 | 0.125 µg/mL (≈ 0.288 µM)
35 | O=C(Nc1ccc(Br)cc1C(=O)O)c1ccc(SC2CCCCC2)nc1 | 1 µg/mL (≈ 2.3 µM)
36 | O=C(Nc1ccc(Br)cc1C(=O)O)c1cnc(SCc2ccccc2)cn1 | 0.125 µg/mL (≈ 0.281 µM)
37 | CCCCCSc1ccc(C(=O)Nc2ccc(C#N)cc2C(=O)O)cn1 | 0.125 µg/mL (≈ 0.338 µM)
38 | N#Cc1ccc(NC(=O)c2cc3ccc(OCc4ccccc4)cc3[nH]2)c(C(=O)O)c1 | 0.125 µg/mL (≈ 0.304 µM)
39 | O=C(Nc1ccc(Br)cc1-c1noc(=O)[nH]1)c1cc(-c2ccccc2)on1 | 1 µg/mL (≈ 2.34 µM)
40 | COc1cccc2[nH]c(C(=O)Nc3ccc(C#N)cc3C(=O)O)cc12 | 0.25 µg/mL (≈ 0.746 µM)

Row | Structure (SMILES) | MIC
41 | Cn1c(C(=O)Nc2ccc(Br)cc2C(=O)O)cc2ccccc21 | 0.5 µg/mL (≈ 1.34 µM)
42 | N#Cc1ccc(NC(=O)c2cc3ccc(Cl)cc3[nH]2)c(C(=O)O)c1 | 2 µg/mL (≈ 5.89 µM)
43 | N#Cc1ccc(NC(=O)c2cc3ccccc3n2Cc2ccccc2)c(C(=O)O)c1 | 8 µg/mL (≈ 20.2 µM)
44 | CCn1c(C(=O)Nc2ccc(C#N)cc2C(=O)O)cc2ccccc21 | 1 µg/mL (≈ 3 µM)
45 | N#Cc1ccc(NC(=O)c2cc3cccc(S(=O)(=O)c4ccccc4)c3[nH]2)c(C(=O)O)c1 | 0.125 µg/mL (≈ 0.281 µM)
46 | O=C(Nc1ccc(Br)cc1C(=O)O)c1nnc(SCc2ccccc2)s1 | 0.125 µg/mL (≈ 0.278 µM)
47 | N#Cc1ccc(NC(=O)c2cc3cc(-c4ccccc4)oc3cn2)c(C(=O)O)c1 | 8 µg/mL (≈ 20.9 µM)
48 | CCCCCCSc1ccc(C(=O)Nc2ccc(C#N)cc2C(=O)O)cn1 | 0.125 µg/mL (≈ 0.326 µM)
49 | N#Cc1ccc(NC(=O)c2cncc(SCc3ccccc3)n2)c(C(=O)O)c1 | 64 µg/mL (≈ 164 µM)
50 | O=C(Nc1ccc(Br)cc1C(=O)O)c1cncc(SCc2ccccc2)n1 | 16 µg/mL (≈ 36 µM)
51 | N#Cc1ccc(NC(=O)c2ncc(-c3ccccc3)s2)c(C(=O)O)c1 | 1 µg/mL (≈ 2.86 µM)
52 | N#Cc1ccc(NC(=O)c2cc3cccnc3s2)c(C(=O)O)c1 | 4 µg/mL (≈ 12.4 µM)
53 | CCCCCSc1nnc(C(=O)Nc2ccc(Br)cc2C(=O)O)o1 | 0.25 µg/mL (≈ 0.603 µM)
54 | O=C(Nc1ccc(Cl)cc1C(=O)O)c1ncc(-c2ccccc2)o1 | 1 µg/mL (≈ 2.92 µM)
55 | CCCCCCCCCSc1ccc(C(=O)Nc2ccc(C#N)cc2C(=O)O)cn1 | 1 µg/mL (≈ 2.35 µM)
56 | Cc1cc(C(=O)Nc2ccc(C#N)cc2C(=O)O)no1 | 4 µg/mL (≈ 14.7 µM)
57 | CCCCCCSc1ccc(C(=O)Nc2ccc(Br)cc2C(=O)O)cn1 | 0.125 µg/mL (≈ 0.286 µM)
58 | CCCCCCSc1ccc(C(=O)Nc2ccc(Cl)cc2C(=O)O)cn1 | 0.125 µg/mL (≈ 0.318 µM)
59 | COCCOCCCSc1ccc(C(=O)Nc2ccc(Br)cc2C(=O)O)cn1 | 0.5 µg/mL (≈ 1.07 µM)

Second part, the compound after the results:

Row | MIC | Structure (SMILES)
60 | 16 µg/mL (≈ 37.2 µM) | Cn1nc(C(=O)Nc2ccc(Br)cc2C(=O)O)cc1OCc1ccccc1
61 | 64 µg/mL (≈ 122 µM) | CC(=O)Oc1ccc(N2C(=O)c3ccc(C(=O)Nc4ccc(Br)cc4C(=O)O)cc3C2=O)cc1
62 | 64 µg/mL (≈ 111 µM) | O=C(Nc1ccc(Br)cc1C(=O)O)c1csc(S(=O)(=O)NC2CCN(Cc3ccccc3)CC2)c1
63 | 16 µg/mL (≈ 29 µM) | Cc1sc(C(=O)Nc2ccc(Br)cc2C(=O)O)cc1S(=O)(=O)NCc1ccc(N(C)C)cc1
64 | > 128 µg/mL | N#Cc1ccc(NC(=O)c2cncc(-c3cnc4ccccc4c3)c2)c(C(=O)O)c1
65 | 16 µg/mL (≈ 38.9 µM) | N#Cc1ccc(NC(=O)c2cncc(-c3cccc(C(F)(F)F)c3)c2)c(C(=O)O)c1
66 | 1 µg/mL (≈ 2.53 µM) | N#Cc1ccc(NC(=O)c2cnc(SCc3ccccc3)s2)c(C(=O)O)c1
67 | 32 µg/mL (≈ 52.9 µM) | Cc1sc(C(=O)Nc2ccc(C#N)cc2C(=O)O)cc1S(=O)(=O)N1CCC(O)(c2ccc(Br)cc2)CC1
68 | 64 µg/mL (≈ 182 µM) | N#Cc1ccc(NC(=O)c2ccc(N3CCOCC3)nc2)c(C(=O)O)c1
69 | 16 µg/mL (≈ 54.9 µM) | C#Cc1cncc(C(=O)Nc2ccc(C#N)cc2C(=O)O)c1
70 | 2 µg/mL (≈ 4.33 µM) | CCC1CCCCN1S(=O)(=O)c1cc(C(=O)Nc2ccc(C#N)cc2C(=O)O)sc1C (stereo not shown)
71 | 8 µg/mL (≈ 22.8 µM) | N#Cc1ccc(NC(=O)c2ccc(N3CCCCC3)nc2)c(C(=O)O)c1
72 | 16 µg/mL (≈ 41.4 µM) | Cc1noc(C)c1C#Cc1cncc(C(=O)Nc2ccc(C#N)cc2C(=O)O)c1
73 | 32 µg/mL (≈ 64.6 µM) | Cc1c(C(=O)Cc2cncc(C(=O)Nc3ccc(C#N)cc3C(=O)O)c2)c(=O)n(-c2ccccc2)n1C
74 | 1 µg/mL (≈ 3.05 µM) | CCSc1cncc(C(=O)Nc2ccc(C#N)cc2C(=O)O)c1
75 | 0.25 µg/mL (≈ 0.646 µM) | O=C(Nc1ccc(Br)cc1C(=O)O)c1cc(-c2ccccc2)on1

Row | MIC | Structure (SMILES)
76 | 2 µg/mL (≈ 5.95 µM) | COc1ccc2oc(C(=O)Nc3ccc(C#N)cc3C(=O)O)cc2c1
77 | 0.125 µg/mL (≈ 0.329 µM) | N#Cc1ccc(NC(=O)c2cc(SCc3ccccc3)on2)c(C(=O)O)c1
78 | 0.5 µg/mL (≈ 1.41 µM) | CCC(C)Sc1ccc(C(=O)Nc2ccc(C#N)cc2C(=O)O)cn1 (stereo not shown)
79 | 1 µg/mL (≈ 2.94 µM) | N#Cc1ccc(NC(=O)c2cc3cccc(Cl)c3[nH]2)c(C(=O)O)c1
80 | 0.5 µg/mL (≈ 1.5 µM) | N#Cc1ccc(NC(=O)c2ncc(-c3ccccc3)o2)c(C(=O)O)c1
81 | 1 µg/mL (≈ 2.5 µM) | CCOC(=O)CCSc1ccc(C(=O)Nc2ccc(C#N)cc2C(=O)O)cn1
82 | 1 µg/mL (≈ 2.61 µM) | N#Cc1ccc(NC(=O)c2ncc(-c3cccc(Cl)c3)s2)c(C(=O)O)c1
83 | 8 µg/mL (≈ 22.9 µM) | N#Cc1ccc(NC(=O)c2nc(-c3ccccc3)cs2)c(C(=O)O)c1
84 | 0.25 µg/mL (≈ 0.773 µM) | N#Cc1ccc(NC(=O)c2nc3ccccc3s2)c(C(=O)O)c1
85 | 16 µg/mL (≈ 49.8 µM) | Cc1coc2cnc(C(=O)Nc3ccc(C#N)cc3C(=O)O)cc12
86 | 1 µg/mL (≈ 2.41 µM) | COCCOCCCSc1ccc(C(=O)Nc2ccc(C#N)cc2C(=O)O)cn1
87 | 1 µg/mL (≈ 2.29 µM) | O=C(Nc1ccc(Br)cc1C(=O)O)c1ccc(SC2CCOCC2)nc1
88 | 0.5 µg/mL (≈ 1.22 µM) | Cc1noc(C)c1CSc1ccc(C(=O)Nc2ccc(C#N)cc2C(=O)O)cn1
89 | 0.5 µg/mL (≈ 1.35 µM) | COC(=O)CSc1ccc(C(=O)Nc2ccc(C#N)cc2C(=O)O)cn1
90 | 1 µg/mL (≈ 2.9 µM) | C=CCn1c(C(=O)Nc2ccc(C#N)cc2C(=O)O)cc2ccccc21
91 | 1 µg/mL (≈ 2.49 µM) | N#Cc1ccc(NC(=O)c2cc3ccccc3n2CC2CCCCC2)c(C(=O)O)c1
